Source: PubChem BioAssay AID1259407 (Chemical Carcinogenesis Research Information System (CCRIS), 2018)
The source made the active and inactive calls. How the calls were made is not given here.

Test system: CCRIS mutagenicity, Ames/micronucleus/aberration tests
Assay: CCRIS mutagenicity studies
[1] = Test System: MOUSE LYMPHOMA, Strain/Indicator: L5178Y (TK+/TK-), Metabolic Activation: NONE, Method: SUSPENSION/PLATE
[2] = Test System: MOUSE LYMPHOMA, Strain/Indicator: L5178Y (TK+/TK-), Metabolic Activation: RAT, LIVER, S-9, AROCLOR 1254, Method: SUSPENSION/PLATE
[3] = Test System: AMES SALMONELLA TYPHIMURIUM, Strain/Indicator: TA100, Metabolic Activation: NONE, Method: STANDARD PLATE

Measured: mutagenic call

CC(C)(C)N(CC(O)COc1cccc2c1CC(O)C(O)C2)N=O (configuration not stated)
active: Test System: UDS HUMAN HEPATOCYTES, Strain/Indicator: THY INCORP, Metabolic Activation: NONE, Method: AUTORADIOGRAPHY active; positive | Test System: UDS RAT HEPATOCYTES, Strain/Indicator: THY INCORP, Metabolic Activation: NONE, Method: AUTORADIOGRAPHY active; positive

O=c1ccc(=O)c2c(=O)c(Cl)c(Cl)c(=O)c1=2
active: Test System: AMES SALMONELLA TYPHIMURIUM, Strain/Indicator: TA97, Metabolic Activation: RAT, LIVER, S-9, PHENOBARBITAL AND 5,6-BENZOFLAVONE, Method: PREINCUBATION active; positive | Test System: AMES SALMONELLA TYPHIMURIUM, Strain/Indicator: TA102, Metabolic Activation: NONE, Method: PREINCUBATION active; positive | Test System: AMES SALMONELLA TYPHIMURIUM, Strain/Indicator: TA102, Metabolic Activation: RAT, LIVER, S-9, PHENOBARBITAL AND 5,6-BENZOFLAVONE, Method: PREINCUBATION active; positive | Test System: AMES SALMONELLA TYPHIMURIUM, Strain/Indicator: TA104, Metabolic Activation: NONE, Method: PREINCUBATION active; positive | Test System: AMES SALMONELLA TYPHIMURIUM, Strain/Indicator: TA104, Metabolic Activation: RAT, LIVER, S-9, PHENOBARBITAL AND 5,6-BENZOFLAVONE, Method: PREINCUBATION active; positive | Test System: AMES SALMONELLA TYPHIMURIUM, Strain/Indicator: TA2637, Metabolic Activation: NONE, Method: PREINCUBATION active; positive | Test System: AMES SALMONELLA TYPHIMURIUM, Strain/Indicator: TA2637, Metabolic Activation: RAT, LIVER, S-9, PHENOBARBITAL AND 5,6-BENZOFLAVONE, Method: PREINCUBATION active; positive
inactive: Test System: AMES SALMONELLA TYPHIMURIUM, Strain/Indicator: TA97, Metabolic Activation: NONE, Method: PREINCUBATION inactive; negative | Test System: AMES SALMONELLA TYPHIMURIUM, Strain/Indicator: TA98, Metabolic Activation: NONE, Method: PREINCUBATION inactive; negative | Test System: AMES SALMONELLA TYPHIMURIUM, Strain/Indicator: TA98, Metabolic Activation: RAT, LIVER, S-9, PHENOBARBITAL AND 5,6-BENZOFLAVONE, Method: PREINCUBATION inactive; negative | Test System: AMES SALMONELLA TYPHIMURIUM, Strain/Indicator: TA100, Metabolic Activation: NONE, Method: PREINCUBATION inactive; negative | Test System: AMES SALMONELLA TYPHIMURIUM, Strain/Indicator: TA100, Metabolic Activation: RAT, LIVER, S-9, PHENOBARBITAL AND 5,6-BENZOFLAVONE, Method: PREINCUBATION inactive; negative | Test System: AMES SALMONELLA TYPHIMURIUM, Strain/Indicator: TA1535, Metabolic Activation: NONE, Method: PREINCUBATION inactive; negative | Test System: AMES SALMONELLA TYPHIMURIUM, Strain/Indicator: TA1535, Metabolic Activation: RAT, LIVER, S-9, PHENOBARBITAL AND 5,6-BENZOFLAVONE, Method: PREINCUBATION inactive; negative | Test System: AMES SALMONELLA TYPHIMURIUM, Strain/Indicator: TA1537, Metabolic Activation: NONE, Method: PREINCUBATION inactive; negative | Test System: AMES SALMONELLA TYPHIMURIUM, Strain/Indicator: TA1537, Metabolic Activation: RAT, LIVER, S-9, PHENOBARBITAL AND 5,6-BENZOFLAVONE, Method: PREINCUBATION inactive; negative | Test System: AMES SALMONELLA TYPHIMURIUM, Strain/Indicator: TA1538, Metabolic Activation: NONE, Method: PREINCUBATION inactive; negative | Test System: AMES SALMONELLA TYPHIMURIUM, Strain/Indicator: TA1538, Metabolic Activation: RAT, LIVER, S-9, PHENOBARBITAL AND 5,6-BENZOFLAVONE, Method: PREINCUBATION inactive; negative

c1ccc2scnc2c1
inactive: [1] inactive; negative. reevaluation of results: negative | [2] inactive; negative. reevaluation of results: negative

Cc1ccc(OC(=O)N(C)N=O)cc1C
active: Test System: E. COLI WP2, Strain/Indicator: WP2, Metabolic Activation: NONE, Method: STANDARD PLATE active; positive

Cc1ccc(Cl)c(N)c1
inactive: Test System: UDS RODENT HEPATOCYTES, Strain/Indicator: THY INCORP (NON-S-PHASE), Metabolic Activation: NONE, Method: AUTORADIOGRAPHY inactive; negative

COc1ccc([Se]c2ccc(OC)cc2)cc1
active: [3] active; positive
inactive: Test System: AMES SALMONELLA TYPHIMURIUM, Strain/Indicator: TA97A, Metabolic Activation: NONE, Method: STANDARD PLATE inactive; negative

O[C@H]1C=Cc2c(cc3c4c(cc5ccccc53)-c3ccccc3-c24)[C@@H]1O
active: Test System: AMES SALMONELLA TYPHIMURIUM, Strain/Indicator: TA100, Metabolic Activation: MOUSE, LIVER, S-9, 3-METHYLCHOLANTHRENE, Method: STANDARD PLATE active; positive | Test System: AMES SALMONELLA TYPHIMURIUM, Strain/Indicator: TA100, Metabolic Activation: RAT, LIVER, S-9, 3-METHYLCHOLANTHRENE, Method: STANDARD PLATE active; positive

C[C@]12C=CC(=O)C=C1CC[C@@H]1[C@@H]2C(=O)C[C@@]2(C)[C@H]1CC[C@]2(O)C(=O)CO
inactive: Test System: AMES SALMONELLA TYPHIMURIUM, Strain/Indicator: TA98, Metabolic Activation: HAMSTER, LIVER, S-9, AROCLOR 1254 (10%), Method: STANDARD PLATE inactive; negative | Test System: AMES SALMONELLA TYPHIMURIUM, Strain/Indicator: TA98, Metabolic Activation: NONE, Method: STANDARD PLATE inactive; negative | Test System: AMES SALMONELLA TYPHIMURIUM, Strain/Indicator: TA98, Metabolic Activation: RAT, LIVER, S-9, AROCLOR 1254 (10%), Method: STANDARD PLATE inactive; negative | Test System: AMES SALMONELLA TYPHIMURIUM, Strain/Indicator: TA100, Metabolic Activation: HAMSTER, LIVER, S-9, AROCLOR 1254 (10%), Method: STANDARD PLATE inactive; negative | [3] inactive; negative | Test System: AMES SALMONELLA TYPHIMURIUM, Strain/Indicator: TA100, Metabolic Activation: RAT, LIVER, S-9, AROCLOR 1254 (10%), Method: STANDARD PLATE inactive; negative | Test System: AMES SALMONELLA TYPHIMURIUM, Strain/Indicator: TA1535, Metabolic Activation: HAMSTER, LIVER, S-9, AROCLOR 1254 (10%), Method: STANDARD PLATE inactive; negative | Test System: AMES SALMONELLA TYPHIMURIUM, Strain/Indicator: TA1535, Metabolic Activation: NONE, Method: STANDARD PLATE inactive; negative | Test System: AMES SALMONELLA TYPHIMURIUM, Strain/Indicator: TA1535, Metabolic Activation: RAT, LIVER, S-9, AROCLOR 1254 (10%), Method: STANDARD PLATE inactive; negative | Test System: AMES SALMONELLA TYPHIMURIUM, Strain/Indicator: TA1537, Metabolic Activation: HAMSTER, LIVER, S-9, AROCLOR 1254 (10%), Method: STANDARD PLATE inactive; negative | Test System: AMES SALMONELLA TYPHIMURIUM, Strain/Indicator: TA1537, Metabolic Activation: NONE, Method: STANDARD PLATE inactive; negative | Test System: AMES SALMONELLA TYPHIMURIUM, Strain/Indicator: TA1537, Metabolic Activation: RAT, LIVER, S-9, AROCLOR 1254 (10%), Method: STANDARD PLATE inactive; negative | Test System: AMES SALMONELLA TYPHIMURIUM, Strain/Indicator: TA1538, Metabolic Activation: HAMSTER, LIVER, S-9, AROCLOR 1254 (10%), Method: STANDARD PLATE inactive; negative | Test System: AMES SALMONELLA TYPHIMURIUM, Strain/Indicator: TA1538, Metabolic Activation: NONE, Method: STANDARD PLATE inactive; negative | Test System: AMES SALMONELLA TYPHIMURIUM, Strain/Indicator: TA1538, Metabolic Activation: RAT, LIVER, S-9, AROCLOR 1254 (10%), Method: STANDARD PLATE inactive; negative | [1] inactive; negative. reevaluation of results: negative | [2] inactive; negative. reevaluation of results: inconclusive

CC(=O)Nc1ccc(Oc2ccccc2)cc1
inactive: [3] inactive; negative
active: Test System: AMES SALMONELLA TYPHIMURIUM, Strain/Indicator: TA100, Metabolic Activation: RAT, LIVER, S-9, KANECLOR 500, Method: STANDARD PLATE active; positive
